Measurements reported in patent US20250162973A1, “METHODS OF SYNTHESIS AND USES OF AGRIMOL COMPOUNDS” (Versitech Limited, priority 2022, published 2025).
Like-named read-outs stand apart in the source and are kept apart here.

Legend:
[1] = tested on: Golgi complex in NCI-H460 cells; assay: Golgi integrity, anti-GM130 immunostaining; assay type: cell-based, human
Description: Based on the ProTargetMiner analysis results, the mitochondrial function and ER stress were studied. […] In cells, proteins were initially synthesized in ER and transport to Golgi apparatus for processing. When a drug blocked ER to Golgi trafficking, the Golgi apparatus would suffer from a dramatic redistribution and disruption. This blocking causes accumulation of unmatured proteins in the ER, thereby disrupting the structure of Golgi apparatus and inducing ER stress. The Golgi disrupting agent, brefeldin A (BFA) was used as a positive control drug. […] The effects of BFA and AGB on the integrity of the Golgi complex were assessed by immunostaining using an anti-GM130 antibody, one of Golgi markers.

[2] = tested on: H460 cell line; assay: MTT cell viability assay; assay type: cell-based, human; conditions: MTT method
Description: (§1) SUNE1 (nasopharyngeal carcinoma), AGS (gastric adenocarcinoma), HeLa (cervix adenocarcinoma), HepG2 (hepatocellular carcinoma), U-87 MG (human glioblastoma cell), U2OS (osteosarcoma), MCF-7 (breast adenocarcinoma), MDA-MB-231 (breast adenocarcinoma), HCT116 (colorectal carcinoma), SW480 (colorectal adenocarcinoma), NCI-H460 (large cell lung carcinoma), NCI-H1650 (adenocarcinoma lung carcinoma), HCC827 (adenocarcinoma lung carcinoma), A549 (lung carcinoma), and CCD-19Lu (human lung fibroblast normal cell) were all obtained from American Type Culture Collection (ATCC, Manassas, VA, USA). Minimum Essential Media (MEM, Gibco®, ThermoFisher Scientific), Dulbecco's Modified Eagle Medium (DMEM, Gibco®, ThermoFisher Scientific), and RPMI-1640 Medium (Gibco®, ThermoFisher Scientific) supplemented with 10% Fetal Bovine Serum (Gibco®, ThermoFisher Scientific), and 100 U/mL penicillin-streptomycin (Gibco™, ThermoFisher Scientific) were used for cell culture. Cells were placed into an incubator with 5% CO2 that temperature was set at 37° C. For subculturing cells, 0.05% Trypsin-EDTA (Gibco®) was used for detaching and a subcultivation ratio of 1:5 was used.
(§2) The cell viability assay was performed by a typical MTT assay. Briefly, 5*10^3 cells were seeded in the 96-well flat bottom plate and allowed to attach overnight. After drug treatment with a serial dilution from 100 μM for 48 h, 10 μL of MTT solution (5 mg/ml prepared in PBS, filtered) was added into each well and incubate for 4 h at 37° C. The formed formazan was then dissolved with SDS solution (10% SDS in 10 mM HCl) and followed the determination of absorbance at 590 nm by a microplate reader. The change in cell viability was then calculated for each drug concentration, then normalized to control. Dose response curves from each assay were fit to a Boltzmann sigmoidal function (GraphPad Prism8, version8.0.0). The cytotoxicity of AGB and its derivatives was determined by the calculation of IC50 value (half maximal inhibitory concentration) from fitted curves, which was the concentration of drug induced 50% cell viability.

[3] = tested on: HeLa cell line; assay: MTT cell viability assay; assay type: cell-based, human; conditions: MTT method
Description: as §1, §2

[4] = tested on: A549; assay: MTT cell viability assay; assay type: cell-based; conditions: Homo sapiens, MTT method, 48h, Table 6
Description: as §1, §2

[5] = tested on: MDA-MB-231 cell line; assay: MTT cell viability assay; assay type: cell-based, human; conditions: MTT method, 48 h
Description: as §1, §2

[6] = tested on: AGS cell line; assay: MTT cell viability assay; assay type: cell-based, human; conditions: MTT method, 48 h
Description: as §1, §2

[7] = tested on: human cancer cell lines (MDA-MB-231, MCF-7, HepG2, HeLa, AGS, HCT116, SW480, SUNE-1, H460, HCC827, H1650, A549); assay: MTT cell viability assay, panel of human cancer cell lines; assay type: cell-based; conditions: four different cancer cell lines, 48-h treatment
Description: as §1, §2

[8] = Homo sapiens, NCI-H460, 48h, Table 6, read-out: IC50 H460
[9] = Homo sapiens, HeLa, 48h, Table 6, read-out: IC50 HeLa
[10] = 48 h, read-out: IC50 H460 cell line
[11] = 48 h, read-out: IC50 HeLa cell line

| IC50 [2, 8] [µM] | IC50 [3, 9] [µM] | IC50 [4] [µM] | Compound | also measured |
| --- | --- | --- | --- | --- |
| – | – | – | C[C@H]1CCC/C=C/[C@@H]2C[C@H](O)C[C@H]2[C@H](O)/C=C/C(=O)O1 [BFA, brefeldin A] | GM130 distribution (Golgi integrity) [1]: redistribution of GM130 |
| 2.3 | 2.06 | 8.53 | CCCC(=O)c1c(O)c(Cc2c(O)c(Cc3cc(OC)c(OC)c(OC)c3)c(O)c(C(=O)C(C)CC)c2O)c(O)c(C)c1OC (stereo not drawn) | – |
| 3.13 | 3.24 | 28.4 | CCCC(=O)c1c(O)c(Cc2c(O)c(C(=O)c3ccccc3)c(O)c(C(=O)c3ccccc3)c2O)c(O)c(C)c1OC | – |
| 1.14 | – | – | CCCC(=O)c1c(O)c(Cc2c(O)c(C(=O)OC)c(O)c(C(=O)C(C)C)c2O)c(O)c(C)c1OC | – |
| 2.99 | 3.96 | 20.5 | CCC(C)C(=O)c1c(O)c(Cc2cc(C)ccc2O)c(O)c(C(=O)OC)c1O (stereo not drawn) | – |
| – | – | – | Agrimol L [AGL] | IC50 [5]: > 50 µM; IC50 [2, 10]: > 50 µM; IC50 [3, 11]: 35.1 µM; IC50 [6]: > 50 µM; cytotoxicity compared with AGB [7]: significantly lower cytotoxicity than AGB |
| – | – | – | CCCC(=O)c1c(O)c(Cc2c(O)c(C)c(OC)c(C(=O)CCC)c2O)c(O)c(Cc2c(O)c(C)c(OC)c(C(=O)CCC)c2O)c1O [AGC, Agrimol C] | IC50 [5]: 2.44 µM; IC50 [2, 10]: 1.76 µM; IC50 [3, 11]: 1.52 µM; IC50 [6]: 8.01 µM |
| 4.67 | 3.56 | 41.9 | CCC(=O)c1c(O)c(Cc2c(O)c(Cc3c(O)c(C)c(OC)c(C(=O)CC)c3O)c(O)c(C(=O)CCC(O)OC)c2O)c(O)c(C)c1OC (stereo not drawn) | – |
| – | – | – | CCCC(=O)c1c(O)cc(O)c(C)c1OC [AGS] | IC50 ([5]; Homo sapiens, MDA-MB-231): > 50 µM; IC50 ([2]; Homo sapiens, NCI-H460, 48 h, read-out: IC50 H460 cell line): > 50 µM; IC50 ([3]; Homo sapiens, HeLa, 48 h, read-out: IC50 HeLa cell line): > 50 µM; IC50 ([6]; Homo sapiens, AGS): > 50 µM; cytotoxicity compared with AGB [7]: significantly lower cytotoxicity than AGB |
| – | – | – | Agrimol H [AGH] | IC50 [5]: 2.84 µM; IC50 [2, 10]: 2.66 µM; IC50 [3, 11]: 1.55 µM; IC50 [6]: 5.43 µM |
| 2.75 | 1.23 | 19.3 | CCCC(=O)c1c(O)c(Cc2c(O)c(Cc3c(O)c(C)c(OC)c(C(=O)CCC)c3O)c(O)c(C(=O)c3ccccc3)c2O)c(O)c(C)c1OC | – |
| 2.3 | 1.44 | – | CCCC(=O)c1c(O)c(Cc2c(O)c(Cc3c(O)c(C)c(OC)c(C(=O)CCC)c3O)c(O)c(C(=O)C3CCCCC3)c2O)c(O)c(C)c1OC | – |
| 2.05 | – | – | CCC(C)C(=O)c1c(O)c(Cc2ccccc2O)c(Cl)c(C(=O)OC)c1O (stereo not drawn) | – |

| Compound | IC50 [2, 8] [µM] | IC50 [3, 9] [µM] | IC50 [4] [µM] | also measured |
| --- | --- | --- | --- | --- |
| CCCC(=O)c1c(O)c(Cc2c(O)c(C)c(O)c(Cc3c(O)c(C)c(OC)c(C(=O)CCC)c3O)c2O)c(O)c(C)c1OC | 3.78 | – | – | – |
